Data reported in the supplement of paper PMC13207355.

Assays:
Conditions in all cases: exposure time: 72 h
[1] = tested on: E13 (patient-derived glioblastoma stem cells of classical subtype); assay: surviving fraction (nuclei count normalised to DMSO); higher = more cells surviving (less toxic)
[2] = tested on: E21 (patient-derived glioblastoma stem cells of mesenchymal subtype); assay: as above
[3] = tested on: E28 (patient-derived glioblastoma stem cells of classical subtype); assay: as above
[4] = tested on: E31 (patient-derived glioblastoma stem cells of proneural subtype); assay: as above
[5] = tested on: E34 (patient-derived glioblastoma stem cells of proneural subtype); assay: as above
[6] = tested on: E57 (patient-derived glioblastoma stem cells of mesenchymal subtype); assay: as above
[7] = tested on: FT3469 (normal neural stem cell line); assay: as above
[8] = tested on: E13; assay: phenotypic distance (Euclidean, principal components) from DMSO controls (arbitrary units); higher = stronger morphological change
[9] = tested on: E21; assay: as above
[10] = tested on: E28; assay: as above
[11] = tested on: E31; assay: as above
[12] = tested on: E34; assay: as above
[13] = tested on: E57; assay: as above
[14] = tested on: FT3469; assay: as above
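For phenotypic distance (Euclidean, principal components) from DMSO controls in this document: cell Painting imaging in 384-well plates, CellProfiler features reduced to at least 20 principal components, Euclidean distance versus same-plate DMSO vehicle wells (0.1% v/v), median over six images per well.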
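For surviving fraction (nuclei count normalised to DMSO) in this document: nuclei counted by high-content imaging of Hoechst-stained cells in laminin-coated 384-well plates, relative to 0.1% DMSO vehicle wells, with staurosporine as cell-death control.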

COC(=O)Nc1nc2cc(C(=O)c3ccccc3)ccc2[nH]1 [Mebendazole]
Conditions	phenotypic distance	surviving fraction
[1], 4.1 nM	–	0.79
[1], 12.3 nM	–	0.88
[1], 37 nM	–	0.816
[1], 111.1 nM	–	0.465
[1], 333.3 nM	–	0.22
[1], 1000 nM	–	0.203
[1], 3000 nM	–	0.221
[2], 4.1 nM	–	0.964
[2], 12.3 nM	–	0.942
[2], 37 nM	–	0.868
[2], 111.1 nM	–	0.707
[2], 333.3 nM	–	0.138
[2], 1000 nM	–	0.144
[2], 3000 nM	–	0.187
[3], 4.1 nM	–	1.01
[3], 12.3 nM	–	0.992
[3], 37 nM	–	0.943
[3], 111.1 nM	–	0.731
[3], 333.3 nM	–	0.444
[3], 1000 nM	–	0.288
[3], 3000 nM	–	0.426
[4], 4.1 nM	–	0.817
[4], 12.3 nM	–	0.859
[4], 37 nM	–	0.71
[4], 111.1 nM	–	0.417
[4], 333.3 nM	–	0.132
[4], 1000 nM	–	0.1
[4], 3000 nM	–	0.114
[5], 4.1 nM	–	0.922
[5], 12.3 nM	–	0.961
[5], 37 nM	–	0.917
[5], 111.1 nM	–	0.664
[5], 333.3 nM	–	0.432
[5], 1000 nM	–	0.403
[5], 3000 nM	–	0.384
[6], 4.1 nM	–	1
[6], 12.3 nM	–	1.06
[6], 37 nM	–	0.876
[6], 111.1 nM	–	0.784
[6], 333.3 nM	–	0.148
[6], 1000 nM	–	0.0727
[6], 3000 nM	–	0.092
[7], 4.1 nM	–	0.984
[7], 12.3 nM	–	1.02
[7], 37 nM	–	0.772
[7], 111.1 nM	–	0.663
[7], 333.3 nM	–	0.648
[7], 1000 nM	–	0.56
[7], 3000 nM	–	0.566
[8], 4.1 nM	1.43	–
[8], 12.3 nM	1.24	–
[8], 37 nM	2.04	–
[8], 111.1 nM	4.4	–
[8], 333.3 nM	7.15	–
[8], 1000 nM	6.93	–
[8], 3000 nM	7.2	–
[9], 4.1 nM	1.49	–
[9], 12.3 nM	1.54	–
[9], 37 nM	1.52	–
[9], 111.1 nM	2.75	–
[9], 333.3 nM	7.72	–
[9], 1000 nM	7.67	–
[9], 3000 nM	6.82	–
[10], 4.1 nM	0.755	–
[10], 12.3 nM	0.838	–
[10], 37 nM	1.05	–
[10], 111.1 nM	2.06	–
[10], 333.3 nM	3.8	–
[10], 1000 nM	4.27	–
[10], 3000 nM	4.73	–
[11], 4.1 nM	1.27	–
[11], 12.3 nM	0.909	–
[11], 37 nM	1.1	–
[11], 111.1 nM	2.77	–
[11], 333.3 nM	5.6	–
[11], 1000 nM	5.55	–
[11], 3000 nM	4.51	–
[12], 4.1 nM	0.931	–
[12], 12.3 nM	0.785	–
[12], 37 nM	1.36	–
[12], 111.1 nM	2.23	–
[12], 333.3 nM	3.56	–
[12], 1000 nM	3.98	–
[12], 3000 nM	6.31	–
[13], 4.1 nM	1.09	–
[13], 12.3 nM	0.846	–
[13], 37 nM	1.77	–
[13], 111.1 nM	2.71	–
[13], 333.3 nM	5.36	–
[13], 1000 nM	5.62	–
[13], 3000 nM	4.64	–
[14], 4.1 nM	0.995	–
[14], 12.3 nM	0.806	–
[14], 37 nM	0.927	–
[14], 111.1 nM	2.1	–
[14], 333.3 nM	3.21	–
[14], 1000 nM	3.43	–
[14], 3000 nM	3.34	–

CC[C@@]1(O)C(=O)OCc2c1cc1n(c2=O)Cc2cc3cc(O)ccc3nc2-1 [Hydroxy Camptothecine]
Conditions	phenotypic distance	surviving fraction
[1], 4.1 nM	–	0.295
[1], 12.3 nM	–	0.298
[1], 37 nM	–	0.269
[1], 111.1 nM	–	0.241
[1], 333.3 nM	–	0.178
[1], 1000 nM	–	0.197
[1], 3000 nM	–	0.141
[2], 4.1 nM	–	0.133
[2], 12.3 nM	–	0.115
[2], 37 nM	–	0.12
[2], 111.1 nM	–	0.161
[2], 333.3 nM	–	0.135
[2], 1000 nM	–	0.106
[2], 3000 nM	–	0.119
[3], 4.1 nM	–	0.341
[3], 12.3 nM	–	0.331
[3], 37 nM	–	0.313
[3], 111.1 nM	–	0.331
[3], 333.3 nM	–	0.268
[3], 1000 nM	–	0.219
[3], 3000 nM	–	0.151
[4], 4.1 nM	–	0.159
[4], 12.3 nM	–	0.166
[4], 37 nM	–	0.174
[4], 111.1 nM	–	0.231
[4], 333.3 nM	–	0.223
[4], 1000 nM	–	0.203
[4], 3000 nM	–	0.201
[5], 4.1 nM	–	0.494
[5], 12.3 nM	–	0.492
[5], 37 nM	–	0.608
[5], 111.1 nM	–	0.446
[5], 333.3 nM	–	0.509
[5], 1000 nM	–	0.496
[5], 3000 nM	–	0.569
[6], 4.1 nM	–	0.14
[6], 12.3 nM	–	0.165
[6], 37 nM	–	0.148
[6], 111.1 nM	–	0.157
[6], 333.3 nM	–	0.144
[6], 1000 nM	–	0.136
[6], 3000 nM	–	0.13
[7], 4.1 nM	–	0.616
[7], 12.3 nM	–	0.73
[7], 37 nM	–	0.51
[7], 111.1 nM	–	0.563
[7], 333.3 nM	–	0.489
[7], 1000 nM	–	0.442
[7], 3000 nM	–	0.445
[8], 4.1 nM	5.76	–
[8], 12.3 nM	6.4	–
[8], 37 nM	5.69	–
[8], 111.1 nM	6.9	–
[8], 333.3 nM	6.25	–
[8], 1000 nM	6.56	–
[8], 3000 nM	6.55	–
[9], 4.1 nM	4.52	–
[9], 12.3 nM	4.56	–
[9], 37 nM	5.14	–
[9], 111.1 nM	4.89	–
[9], 333.3 nM	4.81	–
[9], 1000 nM	5.63	–
[9], 3000 nM	5.74	–
[10], 4.1 nM	3	–
[10], 12.3 nM	2.79	–
[10], 37 nM	3.94	–
[10], 111.1 nM	2.28	–
[10], 333.3 nM	3.33	–
[10], 1000 nM	3.32	–
[10], 3000 nM	3.06	–
[11], 4.1 nM	3.54	–
[11], 12.3 nM	2.94	–
[11], 37 nM	3.69	–
[11], 111.1 nM	2.96	–
[11], 333.3 nM	3.02	–
[11], 1000 nM	4.3	–
[11], 3000 nM	4.23	–
[12], 4.1 nM	3.37	–
[12], 12.3 nM	3.46	–
[12], 37 nM	1.84	–
[12], 111.1 nM	2.93	–
[12], 333.3 nM	2.95	–
[12], 1000 nM	3.66	–
[12], 3000 nM	3.13	–
[13], 4.1 nM	6.51	–
[13], 12.3 nM	6.72	–
[13], 37 nM	6.63	–
[13], 111.1 nM	5.99	–
[13], 333.3 nM	6.28	–
[13], 1000 nM	6.33	–
[13], 3000 nM	5.89	–
[14], 4.1 nM	1.58	–
[14], 12.3 nM	1.79	–
[14], 37 nM	2.15	–
[14], 111.1 nM	1.67	–
[14], 333.3 nM	2.41	–
[14], 1000 nM	3.08	–
[14], 3000 nM	3.19	–
